Assay results reported in patent US12139481B2, “Compositions comprising macrocycle derivatives incorporating bridged macrocycles and methods of producing and using same” (Southwestern Oklahoma State University, priority 2015, dated 2024).

Key:
[1] = test system: Cryptococcus neoformans ATCC 90113; assay: Antimicrobial microdilution assay against Cryptococcus neoformans (modified CLSI/NCCLS, optical density); type: cell-based; settings: for X more potent than Amphotericin B: C. neoformans, ratio of molar IC50 to Amphotericin B; for C. neoformans IC50 / IC50: in vitro, C. neoformans ATCC 90113; for IC50: read-out: C. neoformans IC50 (mol/L)
Method: Summary: Various macrocyclic derivatives constructed in accordance with the presently disclosed and/or claimed inventive concept(s) were screened in vitro against Cryptococcus neoformans ATCC 90113 using a microdilution assay. The minimum fungicidal concentration (MFC), the lowest test concentration that kills the organism, was determined in broth media.
Antimicrobial assay: Cryptococcus neoformans ATCC 90113 were obtained from the American Type Culture Collection (Manassas, VA.). The susceptibility testing was performed using a modified version of the CLSI (formerly NCCLS) methods (see below), and optical density was used to monitor growth. Samples were serially diluted in 20% DMSO/saline and transferred in duplicate to 96-well flat bottom microplates. Microbial inocula were prepared by correcting the OD630 of cell/spore suspensions in incubation broth RPMI at pH 6.0 to afford final desired target inocula. Amphotericin B (“AMB;” ICN Biomedicals, OH) was used as drug control. The organism concentration was read at 630 nm using the Biotek Powerwave XS plate reader (Bio-Tek instruments, VT) prior to and after incubation. Minimum fungicidal concentrations were determined by removing 5 μL from each clear well, transferring to agar, and incubating until growth was seen. The MFC/MBC is defined as the lowest test concentration that kids the organism (allows no growth on agar).
References for NCCLS methods referenced above: 1 NCCLS. Reference method for broth dilution antifungal susceptibility testing of yeasts, Vol. 22. Approved standard, 2nd ed. Wayne: National Committee for Clinical Laboratory Standards; 2002: 1-51. 2 NCCLS. Reference method for broth dilution antifungal susceptibility testing of conidium forming filamentous fungi, Vol. 18. Proposed standard M38-P. Wayne: National Committee for Clinical Laboratory Standards; 1998: 1-39. 3 NCCLS. Methods for dilution antimicrobial susceptibility tests for bacteria that grow aerobically, Vol. 20. NCCLS Document M7-A5. Wayne: National Committee for Clinical Laboratory Standards; 2000: 1-58.
The term “IC50” as used herein will be understood to refer to a test concentration in mol/L that affords 50% inhibition of the microbe relative to negative and positive controls. […] The abbreviation “MFC” as used herein will be understood to refer to a minimum fungicidal concentration, or the lowest test concentration in mol/L that kills the organism. All IC50s are calculated using the XLfit® fit curve fitting software (ID Business Solutions Ltd, Guildford, Surrey, UK).
(§1) General Experimental Procedures. All organisms were obtained from the American Type Culture Collection (Manassas, VA) and include the fungi Candida albicans ATCC 90028, C. glabrata ATCC 90030, C. krusei ATCC 6258, and Cryptococcus neoformans ATCC 90113, and the bacteria Staphylococcus aureus ATCC 29213 and methicillin-resistant S. aureus ATCC 33591 (MRS). All organisms were tested using modified versions of the CLSI (formerly NCCLS) methods. For all organisms, optical density was used to monitor growth (NCCLS, Reference Method for Broth Dilution Antifungal Susceptibility Testing of Yeasts; Approved Standard M27-A2. National Committee on Clinical Laboratory Standards, 2002 22 (15); and NCCLS, Methods for Dilution Antimicrobial Susceptibility Tests for Bacteria that Grow Aerobically; Approved Standard, Seventh Edition M7-A7. National Committee on Clinical Laboratory Standards, 2006. 26(2)).
Samples (dissolved in DMSO) were serially-diluted in 20% DMSO/saline and transferred (10 μL) in duplicate to 96 well flat bottom microplates.

[2] = test system: C. glabrata ATCC 90030; assay: Antifungal broth dilution assay against C. glabrata (modified CLSI); type: cell-based, Candida glabrata; settings: for C. glabrata IC50 / IC50: in vitro; for IC50: converted with molecular weight; for X more potent than Amphotericin B: molar IC50 ratio versus amphotericin B
Method: as §1
Samples (dissolved in DMSO) were serially-diluted in 20% DMSO/saline and transferred (10 μL) in duplicate to 96 well flat bottom microplates. Inocula were prepared by correcting the OD630 of microbe suspensions in incubation broth [RPMI 1640/0.2% dextrose/0.03% glutamine/MOPS @ pH 6.0 (Cellgro) for Candida spp., Sabouraud Dextrose for C. neoformans, and cation-adjusted Mueller-Hinton (Difco) @ pH 7.3 for Staphylococcus spp. to afford an assay volume of […] and final target inocula of: Candida spp. and C. neoformans: 1.5×10^3, and Staphylococcus spp.: 5.0×10^5 CFU/ml. Final sample test concentrations were 1/100th the DMSO stock concentration. […] All organisms were read at either 530 nm using the Biotek Powerwave XS plate reader (Bio-Tek Instruments, Vermont) prior to and after incubation: Candida spp. at 35° C. for 46-50 h, Staphylococcus spp. at 35° C. for 16-20 h, and C. neoformans at 35° C. for 70-74 h. IC50s (concentrations that afford 50% inhibition relative to controls) were calculated using XLfit 4.2 software (IDBS, Alameda, CA) using fit model 201. The MIC is defined as the lowest test concentration that allows no detectable growth. Minimum fungicidal or bactericidal concentrations were determined by removing 5 μl from each clear (or blue) well, transferring to fresh media, and incubating as previously mentioned. The MFC/MBC is defined as the lowest test concentration that kills the organism (allows no growth).
Primary Analysis. Samples were tested in duplicate at one test concentration (50 μg/mL), and percent inhibitions were calculated relative to blank and growth controls. Samples showing 50% inhibition in at least one test organism were selected for dose response (Secondary) studies.
Secondary Analysis. Extracts from the Primary Assay, and first-run pure compounds and column fractions were tested in duplicate at 3 test concentrations (5-fold dilutions). Samples dissolved to 20 mg/mL in DMSO were tested at 200, 40, and 8 μg/mL. Samples dissolved to 2 mg/mL in DMSO were tested at 20, 4, and 0.8 μg/mL.

[3] = test system: L. donovani promastigotes; assay: Antileishmanial Alamar Blue assay on promastigotes; type: cell-based, Leishmania donovani; settings: for X more potent than Pentamidine: L. donovani, ratio of molar IC50 to Pentamidine; for L. donovani IC50 / IC50: promastigotes, 48 hours, Alamar Blue; for IC50: read-out: L. donavani IC50
Method: Methods: The compounds were screened in vitro against the promastigote forms of the leishmania parasites employing the Alamar Blue assay as discussed below.
Antileishmanial activity of the compounds was tested in vitro against a culture of L. donovani promastigotes, grown in RPMI 1640 medium supplemented with 10% fetal calf serum (FCS, Gibco Chem. Co., Grand Island, NY) at 26° C. A 3-day-old culture was diluted to 5×10^5 promastigotes/mL. Drug dilutions (50-3.1 μg/mL) were prepared directly in cell suspension in 96-well plates. Plates were incubated at 26° C. for 48 hours, and growth of leishmania promastigotes was determined by Alamar Blue assay. Standard fluorescence was measured on a FLUOstar® Galaxy plate reader (BMG Lab Technologies, Ortenberg, Germany) at an excitation wavelength of 544 nm and emission wavelength of 590 nm. Pentamidine and amphotericin B were used as the standard antileishmanial agents. Percent growth was calculated and plotted versus test concentration for computing the IC50 values.

CN1CCN2CCN(CC1)CCN(Cc1ccccn1)CC2 [KRW32, Me1Pic1-CB-cyclen]
X more potent than Amphotericin B [1]: 0.01
C. neoformans IC50 [1]: 5.490 µg/mL
IC50 [1]: 18100 nM
C. glabrata IC50 [2]: 14.360 µg/mL
IC50 [2]: 47.3 µM
X more potent than Amphotericin B [2]: 0.03

CC(=O)[O-].CC(=O)[O-].F[P-](F)(F)(F)(F)F.F[P-](F)(F)(F)(F)F.O.O.[Co+2].[Co+2].c1cc(CN2CCNCCN3CCN(CC3)CC2)cc(CN2CCNCCN3CCN(CC3)CC2)c1 [OB36, [Co2(m-SB-Cyclens)(OAc)2][PF6]2•2H2O]
X more potent than Amphotericin B [1]: 0.32
C. neoformans IC50 [1]: ≤ 0.800 µg/mL
IC50 [1]: 754 nM
C. glabrata IC50 [2]: 3.720 µg/mL
IC50 [2]: 3.51 µM
X more potent than Amphotericin B [2]: 0.40

p-SB-cyclens HCl salt [OB24B]
X more potent than Amphotericin B [1]: 0.31
C. neoformans IC50 [1]: 0.670 µg/mL
IC50 [1]: 776 nM
X more potent than Pentamidine [3]: 0.14
L. donovani IC50 [3]: 32.40 µg/mL
IC50 [3]: 37.5 µM

[Cl][Mn-2]([Cl])([Cl])[Cl].[Cl][Mn-2]([Cl])([Cl])[Cl].[Mn+2].[Mn+2].c1cc(CN2CCCN3CCNCCCN(CC3)CC2)ccc1CN1CCCN2CCNCCCN(CC2)CC1 [TJH412, [Mn2(H2-p-CB-cyclams)][MnCl4]2]
X more potent than Amphotericin B [1]: 0.13
C. neoformans IC50 [1]: 1.990 µg/mL
IC50 [1]: 1880 nM
X more potent than Pentamidine [3]: 0.17
L. donovani IC50 [3]: 33.37 µg/mL
IC50 [3]: 31.5 µM

c1ccc(CN2CCCNCCN(Cc3ccccc3)CCCNCC2)cc1 [BME04, Bn2Cyclam]
X more potent than Amphotericin B [1]: 0.01
C. neoformans IC50 [1]: 12.160 µg/mL
IC50 [1]: 31900 nM
X more potent than Pentamidine [3]: 0.77
L. donovani IC50 [3]: 2.63 µg/mL
IC50 [3]: 6.91 µM

O.[Cl-].[Cl-].[Mn+2].c1ccc(CN2CCCNCCN(Cc3ccccc3)CCCNCC2)cc1 [TJH397A, Mn(Bn2Cyclam)Cl2•H2O]
X more potent than Amphotericin B [1]: 0.01
C. neoformans IC50 [1]: 16.870 µg/mL
IC50 [1]: 32200 nM
X more potent than Pentamidine [3]: 1.21
L. donovani IC50 [3]: 2.31 µg/mL
IC50 [3]: 4.41 µM

[Cu2(m-cyclam-homocyclen)(OAc)1.5][PF6]2.5 [AW051A]
X more potent than Amphotericin B [1]: 0.23
C. neoformans IC50 [1]: 1.172 µg/mL
IC50 [1]: 1020 nM
C. glabrata IC50 [2]: 7.253 µg/mL
IC50 [2]: 6.32 µM
X more potent than Amphotericin B [2]: 0.22

c1cc(CN2CCCN3CCNCCCN(CC3)CC2)ccc1CN1CCCN2CCNCCCN(CC2)CC1 [JGL44, p-CB-H2Bcyclams]
X more potent than Amphotericin B [1]: 0.73
C. neoformans IC50 [1]: 0.180 µg/mL
IC50 [1]: 324 nM
X more potent than Pentamidine [3]: 0.11
L. donovani IC50 [3]: 28.08 µg/mL
IC50 [3]: 50.6 µM

CC(=O)[O-].F[P-](F)(F)(F)(F)F.[Zn+2].c1ccc(CN2CCCNCCN(Cc3ccccc3)CCCNCC2)cc1 [SLK07B, [Zn(Bn2Cyclam)(OAc)]PF6]
X more potent than Amphotericin B [1]: 0.01
C. neoformans IC50 [1]: 19.840 µg/mL
X more potent than Pentamidine [3]: 1.16
L. donovani IC50 [3]: 2.97 µg/mL

CC(=O)[O-].CC(=O)[O-].F[P-](F)(F)(F)(F)F.F[P-](F)(F)(F)(F)F.O.[Zn+2].[Zn+2].c1cc(CN2CCCN3CCNCCCN(CC3)CC2)ccc1CN1CCCN2CCNCCCN(CC2)CC1 [TJH417B, [Zn2(H2-p-CB-cyclams)(OAc)2][PF6]2•H2O]
X more potent than Amphotericin B [1]: 0.08
C. neoformans IC50 [1]: 3.120 µg/mL
X more potent than Pentamidine [3]: 0.17
L. donovani IC50 [3]: 34.93 µg/mL

CC(=O)[O-].Clc1cc(CN2CCCN3CCN(CCCNCC2)CC3)cc(Cl)n1.F[P-](F)(F)(F)(F)F.[Co+2] [KLC002A]
C. glabrata IC50 [2]: 16.070 µg/mL
IC50 [2]: 24.8 µM
X more potent than Amphotericin B [2]: 0.06

p-CB-cyclam-cyclen [CMB008D]
X more potent than Amphotericin B [1]: 0.17
C. neoformans IC50 [1]: ≤ 0.800 µg/mL
IC50 [1]: 1440 nM
X more potent than Pentamidine [3]: 0.08
L. donovani IC50 [3]: 38.75 µg/mL
IC50 [3]: 69.8 µM

CC(=O)[O-].Clc1cc(CN2CCNCCN3CCN(CC3)CC2)cc(Cl)n1.F[P-](F)(F)(F)(F)F.[Ni+2] [OB106, [Ni(dcp1-SB-cyclen)(OAc)]PF6]
X more potent than Amphotericin B [1]: 0.38
C. neoformans IC50 [1]: 0.390 µg/mL
IC50 [1]: 628 nM
X more potent than Pentamidine [3]: 0.14
L. donovani IC50 [3]: 23.19 µg/mL
IC50 [3]: 37.3 µM

[Co2(m-CB-Homocyclens)(OAc)2.6][PF6]1.4 [CDG036]
X more potent than Amphotericin B [1]: 0.08
C. neoformans IC50 [1]: 3.040 µg/mL
IC50 [1]: 2950 nM
X more potent than Pentamidine [3]: 0.25
L. donovani IC50 [3]: 22.23 µg/mL
IC50 [3]: 21.6 µM

[Ni3(tris-CB-Cyclams)(OAc)3][PF6]3•2.5H2O [BNS23]
X more potent than Amphotericin B [1]: 0.03
C. neoformans IC50 [1]: 12.110 µg/mL
IC50 [1]: 7260 nM
X more potent than Pentamidine [3]: 0.28
L. donovani IC50 [3]: 31.63 µg/mL
IC50 [3]: 19 µM

c1ccc(CN2CCN3CCN(CC2)CCN(Cc2ccccn2)CC3)nc1 [PW95]
C. glabrata IC50 [2]: 14.850 µg/mL
IC50 [2]: 39 µM
X more potent than Amphotericin B [2]: 0.04

[Cu2(m-CB-Homocyclens)(OAc)2.5][PF6]1.5 [CDG035]
X more potent than Amphotericin B [1]: 0.08
C. neoformans IC50 [1]: 3.260 µg/mL
IC50 [1]: 3110 nM
X more potent than Pentamidine [3]: 0.21
L. donovani IC50 [3]: 26.37 µg/mL
IC50 [3]: 25.2 µM
